Patent publication US20180133223A1, “COMBINATION THERAPY WITH A PHOSPHOINOSITIDE 3-KINASE INHIBITOR WITH A ZINC BINDING MOIETY” (Curis, Inc., priority 2016, published 2018)
Marks after values point to notes of the source that are not given here.

Tests used:
[1] = test system: KARPAS422; assay: Tumor growth inhibition, KARPAS422; type: in vivo; conditions: KARPAS422, 100 mg/kg
[2] = test system: SUDHL4; assay: SU-DHL-4 diffuse large B cell lymphoma xenograft model; type: in vivo, mice; conditions: SUDHL4, 100 mg/kg
Protocol: 7- to 9-week-old female immunodeficient Fox Chase SCID Beige mice (15-24 g) obtained from Charles River Laboratories (Wilmington, Mass.) were subcutaneously injected with 5×10^6 SU-DHL-4 cells in a medium suspension of 100 μL cold PBS into the right hind flank region. The treatment was started 29 days following implantation; the average tumor size reached was 126 mm^3. […] Venetoclax (ABT-199) was dissolved in Vehicle 2 (60% phosal 50 PG, 30% PEG 400 and 10% ethanol) to a concentration of 20 mg/mL.
In Groups H to K, Compound 1 and venetoclax were dosed within one minute of each other.
Tumor size was measured twice weekly and the volume was expressed in mm^3 using the formula, V=0.5a×b^2, where a and b were the long and short diameters of the tumor, respectively. The tumor size was then used for the calculation of tumor growth inhibition (TGI)=(1−(T1−T0)/(C1−C0))×100, where C1=mean tumor volume of control mice at time t; T1=mean tumor volume of treated mice at time t; C0=mean tumor volume of control mice at time 0; and T0=mean tumor volume of treated mice at time 0.
(§1) Differences between values obtained in tumors treated with different experimental conditions were determined using the Student's t-test on GraphPad Prism 5.0 (Graphpad Software). p<0.05 was considered as statistically significant.

[3] = test system: HDACs (HeLa cell nuclear extracts); assay: HDAC activity assay (Biomol Color de Lys), HeLa cell nuclear extracts; type: biochemical; conditions: HeLa cell nuclear extracts as source of HDACs
Protocol: HDAC inhibitory activity was assessed using the Biomol Color de Lys system (AK-500, Biomol, Plymouth Meeting, Pa.). Briefly, HeLa cell nuclear extracts were used as a source of HDACs. Different concentrations of test compounds were serially diluted in dimethylsulfoxide (DMSO) and added to HeLa cell nuclear extracts in the presence of a colorimetric artificial substrate. Final assay condition contained 50 mM Tris/Cl, pH 8.0, 137 mM NaCl, 2.7 mM KCl and 1 mM MgCl2. Reactions were carried in room temperature (25° C.) for 1 hour before addition of developer for termination. Relative enzyme activity was measured in the WALLAC Victor II 1420 microplate reader as fluorescence intensity (excitation: 350-380 nm; emission: 440-460 nm). Data were analyzed using GraphPad Prism (v4.0a) with a sigmoidal dose response curve fitting for IC50 calculation.

[4] = Genotoxicity testing, Ames test
[5] = test system: DOHH2; assay: DOHH2 diffuse large B cell lymphoma xenograft model; type: in vivo, mice; conditions: DOHH2, 100 mg/kg
Protocol: Six- to 9-week-old female immunodeficient Fox Chase SCID Beige mice obtained from Charles River Laboratories (Wilmington, Mass.) were subcutaneously injected with 5×10^6 cells in a medium suspension of 100 to 200 μL into the right hind flank region. The treatment was started when the average tumor size reached approximately 100 to 200 mm^3. […] Venetoclax was formulated in 60% phosal 50PG, 30% PEG 400, 10% ethanol (Vehicle 2; Sigma Aldrich, St. Louis, Mo.).
Varying doses of Compound 1 alone, venetoclax alone, the two agents in combination or vehicle were administered orally as per Institutional Animal Care and Use Committee guidelines. […] Venetoclax and Vehicle 2 were dosed daily for 21 days.
Tumor size was measured twice weekly and the volume was expressed in mm^3 using the formula, V=0.5a×b^2, where a and b were the long and short diameters of the tumor, respectively. […]
as §1

[6] = test system: U2932; assay: Tumor growth inhibition, U2932; type: in vivo; conditions: U2932, 100 mg/kg
[7] = Oral bioavailability in animal models; type: in vivo
[8] = test system: OCILY3; assay: Tumor growth inhibition, OCILY3; type: in vivo; conditions: OCILY3, 100 mg/kg
[9] = test system: WSUDLCL2; assay: Tumor growth inhibition, WSUDLCL2; type: in vivo; conditions: WSUDLCL2, 100 mg/kg
[10] = test system: xenograft tumor; assay: Mouse xenograft tumor models; type: in vivo; conditions: oral or intravenous administration
[11] = Tumor tissue uptake in xenograft tumor bearing mice; type: in vivo; conditions: oral or intravenous dosing
[12] = test system: U2932 cells; assay: Cancer cell proliferation / drug combination (CellTiter-Glo); type: cell-based; conditions: U2932, ABC DLBCL, single agent; read-out: ABT-199 EC50
Protocol: (§2) DLBCL cancer cell lines were purchased from the American Type Culture Collection (Manassas, Va.) and German Collection of Microorganisms and Cell Cultures (Braunschweig, Germany). Cells were maintained according to manufacturing recommendation and incubated at 37° C. in a humidified atmosphere of 5% CO2. Growth media was changed every 2 to 3 days and cells were maintained at a density of 2×10^6 to 4×10^6 cells/mL. Exponentially growing cell cultures were used for all experiments described below.
(§3) Cells were plated at densities of 2×10^4 in 96-well flat-bottomed plates with the recommended culture medium for proliferation assays. Cells were then incubated with indicated compounds at various concentrations for indicated amount of time in culture medium supplemented with 10% (v/v) FBS. Cell viability was assessed using the […]-GLO® Luminescent Cell Viability Assay (Promega, Madison, Wis.). GraphPad Prism 5.0 (Graphpad Software, La Jolla, Calif.) was used for curve fitting and IC50 calculation. Two independent experiments with duplicates were performed for each experiment.
(§4) Drug combination synergy was determined based on dose-effect curves generated as cell proliferation after 24 hours of treatment.

[13] = test system: OCILY3 cells; assay: as above; type: cell-based
Protocol: as §2, §3, §4

[14] = test system: SUDHL4 cells; assay: as above; type: cell-based
Protocol: as §2, §3, §4

[15] = test system: KARPAS422 cells; assay: as above; type: cell-based
Protocol: as §2, §3, §4

[16] = test system: DOHH2 cells; assay: as above; type: cell-based; conditions: DOHH2, Follicular Lymphoma, single agent; read-out: ABT-199 EC50
Protocol: as §2, §3, §4

[17] = test system: WSUDLCL2 cells; assay: as above; type: cell-based
Protocol: as §2, §3, §4

COc1ccc(-c2nc(N3CCOCC3)c3sc(CN(C)c4ncc(C(=O)NO)cn4)cc3n2)cn1 [Compound 1, N-hydroxy-2-(((2-(6-methoxypyridin-3-yl)-4-morpholinothieno[3,2-d]pyrimidin-6-yl)methyl)(methyl)amino)pyrimidine-5-carboxamide]
Compound 1 %TGI (100 mg/kg) [1]: 33% | Compound 1 %TGI (100 mg/kg) [2]: 47%* | IC50 [3]: < 100 nM | safety profile, genotoxicity (Ames test) [4]: favorable safety profile | Compound 1 %TGI (100 mg/kg) [5]: 56% | Compound 1 %TGI (100 mg/kg) [6]: 97% | oral bioavailability [7]: significant oral bioavailability | Compound 1 %TGI (100 mg/kg) [8]: 23% | Compound 1 %TGI (100 mg/kg) [9]: 69% | antitumor activity [10]: substantial antitumor activity | uptake by the tumor tissue [11]: significant uptake by the tumor tissue

venetoclax [ABT-199]
EC50 [12]: 476 nM | sensitivity of cell line to single agent ([13]; OCILY3): refractory | EC50 ([13]; OCILY3, ABC DLBCL, single agent, read-out: ABT-199 EC50): 20000 nM | sensitivity of cell line to single agent ([14]; SUDHL4): refractory | EC50 ([14]; SUDHL4, GBC DLBCL, single agent, read-out: ABT-199 EC50): 2130 nM | sensitivity of cell line to single agent ([15]; KARPAS422): refractory | EC50 ([15]; KARPAS422, Follicular Lymphoma, single agent, read-out: ABT-199 EC50): 15600 nM | EC50 [16]: 133 nM | sensitivity of cell line to single agent ([17]; WSUDLCL2): refractory | EC50 ([17]; WSUDLCL2, GCB DLBCL, single agent, read-out: ABT-199 EC50): 3660 nM
